Results: article PMC8490515, “Neuromedin B receptor stimulation of Cav3.2 T-type Ca^2+ channels in primary sensory neurons mediates peripheral pain hypersensitivity” (Theranostics, 2021)
Ends that are not written are not given here.

Columns and labels:
[1] = test system: T-type channels in small TG neurons; test: Whole-cell patch clamp of T-type channel currents (IT) in small TG neurons; format: cell-based, mouse; settings: for inhibition of IT: 0.5 mM
PKA = PKA activity assay in TG cells (Pep Tag); format: cell-based, mouse; settings: pretreatment 10 µM compound C, 100 nM Nmb 30 min
Method: PKA enzymatic activity in cell lysates was measured using the Pep Tag assay for nonradioactive detection of PKA (Promega, Madison, WI, USA) as described in our previous studies. Briefly, TG cells were cultured in 12-well plates and preincubated with BIM23042 (0.5 μM) or compound C (10 μM) followed by exposure to 100 nM Nmb for 30 min. TG cells were washed with ice-cold phosphate-buffered saline and placed on ice. PKA was extracted from the cell lysates with cold PKA extraction buffer (25 mM Tris-HCl, pH 7.4, 0.5 mM EDTA, 0.5 mM EGTA, 10 mM β-mercaptoethanol, 1 μg/mL leupeptin and 1 μg/mL aprotinin). The assay was conducted according to the manufacturer's instructions.

Cav3.2 (α1H) = test: Cav3.2 channel currents in HEK293 cells coexpressing NmbR; format: cell-based, human
Method: Standard whole-cell recordings were made at room temperature (22-23 °C) as described previously, [25]. Recording electrodes were pulled from borosilicate glass microcapillary tubes (Sutter Instruments) and had resistances from 3 to 5 MΩ when filled with internal solution. Recordings were obtained using a MultiClamp 700B amplifier (Axon Instruments). Data were digitized on a personal computer using a Digidata 1440 interface under the control of the pClamp10.2 acquisition package (Molecular Devices). Data were acquired at 20 kHz with a low-pass Bessel filter at 2-5 kHz. Series resistance was compensated to 80%. The internal solution used for T-type channel current recordings contained 110 mM CsCl, 4 mM Mg-ATP, 0.3 mM Na2-GTP, 25 mM HEPES, and 10 mM EGTA, adjusted to pH 7.4 with CsOH; 295 mOsm. The external solution used for T-type channel current recordings contained 5 mM BaCl2, 140 mM TEA-Cl, 10 mM HEPES, 0.5 mM MgCl2, 5 mM CsCl, and 5.5 mM glucose, adjusted to pH 7.35 with TEA-OH; 305 mOsm. In experiments for Kv current recordings, the extracellular solution contained 140 mM choline-Cl, 1 mM MgCl2, 0.03 mM CaCl2, 5 mM KCl, 10 mM HEPES, and 10 mM glucose, adjusted to pH 7.4 with KOH; 310 mOsm. The intracellular pipette solution contained 140 mM KCl, 1 mM MgCl2, 0.5 mM CaCl2, 3 mM Mg-ATP, 0.3 mM Na2-GTP, 10 mM HEPES, and 5 mM EGTA, adjusted to pH 7.4 with KOH; 295 mOsm.

small TG neurons = test: TG neuronal excitability (action potential firing, rheobase, threshold); format: cell-based, mouse
Method: All the procedures performed in this study were carried out in accordance with NIH guidelines and were approved by the Institutional Animal Care and Use Committee of Soochow University. TG neurons were dissociated as previously described, [23]. Briefly, TGs were harvested from 8- to 10-week-old ICR mice of either sex, cut into small pieces and treated with 2 mg/mL collagenase D (Roche) for 20 min followed by 1.5 mg/mL trypsin (Sigma) at 37 °C for 15 min. Cells were dissociated via gentle trituration with fire-polished sterilized Pasteur pipettes and centrifuged through a 15% BSA gradient to remove debris and nonneuronal cells. TG neurons were resuspended in neurobasal A (Thermo Fisher) supplemented with B27 (Thermo Fisher) and transferred onto Matrigel-coated coverslips. Patch clamp recordings were conducted 2 to 6 h after plating. In shRNA-treated knockdown experiments, TG cells were replated onto coverslips 48 h after infection.
Standard whole-cell recordings were made at room temperature (22-23 °C) as described previously, [25]. Recording electrodes were pulled from borosilicate glass microcapillary tubes (Sutter Instruments) and had resistances from 3 to 5 MΩ when filled with internal solution. Recordings were obtained using a MultiClamp 700B amplifier (Axon Instruments). Data were digitized on a personal computer using a Digidata 1440 interface under the control of the pClamp10.2 acquisition package (Molecular Devices). Data were acquired at 20 kHz with a low-pass Bessel filter at 2-5 kHz. Series resistance was compensated to 80%. The internal solution used for T-type channel current recordings contained 110 mM CsCl, 4 mM Mg-ATP, 0.3 mM Na2-GTP, 25 mM HEPES, and 10 mM EGTA, adjusted to pH 7.4 with CsOH; 295 mOsm. The external solution used for T-type channel current recordings contained 5 mM BaCl2, 140 mM TEA-Cl, 10 mM HEPES, 0.5 mM MgCl2, 5 mM CsCl, and 5.5 mM glucose, adjusted to pH 7.35 with TEA-OH; 305 mOsm. In experiments for Kv current recordings, the extracellular solution contained 140 mM choline-Cl, 1 mM MgCl2, 0.03 mM CaCl2, 5 mM KCl, 10 mM HEPES, and 10 mM glucose, adjusted to pH 7.4 with KOH; 310 mOsm. The intracellular pipette solution contained 140 mM KCl, 1 mM MgCl2, 0.5 mM CaCl2, 3 mM Mg-ATP, 0.3 mM Na2-GTP, 10 mM HEPES, and 5 mM EGTA, adjusted to pH 7.4 with KOH; 295 mOsm. The two kinetically distinct Kv currents in small TG neurons were separated by the two-step voltage protocol as previously described, [26]. The external solution for Nav current clamp recordings contained 2 mM KCl, 2 mM MgCl2, 25 mM HEPES, 2 mM CaCl2, 128 mM NaCl, and 30 mM glucose, adjusted to pH 7.4 with NaOH; 305 mOsm. The internal solution contained 10 mM NaCl, 110 mM KCl, 4 mM Mg-ATP, 0.3 mM Na2-GTP, 25 mM HEPES, and 2 mM EGTA, adjusted to pH 7.3 with KOH; 295 mOsm. Nmb was applied to a patched cell by an air-pressure microinjector (Pneumatic PicoPump, model PV830, WPI).
We next determined the role of the Nmb-induced T-type channel response in regulating TG neuronal excitability. […] Furthermore, application of Nmb (100 nM) to TG neurons decreased the peak amplitude of the transient outward K^+ channel currents (A-type currents or IA) (decrease of 22.3 ± 3.9%; Figure 6C), while the sustained delayed rectifier K^+ channel currents (IDR) remained unaffected (decrease of 1.9 ± 1.6%; Figure 6C). […] To further test this hypothesis, a shorter (1 ms) current injection was applied to avoid contaminating the action potential waveform with the stimulus. Neurons were manually hyperpolarized to membrane potentials of -75 mV to maximize the number of T-type channels available for activation. With increasingly stronger current injections (+200 pA), the threshold current necessary to evoke an overshooting AP was determined for each neuron in the presence or absence of Nmb.

T-type channels = settings: cited from earlier work; for IT inhibition: dopamine in retinal horizontal cells, adrenaline in newt olfactory receptor cells, prevented by PKA inhibitors, ref [56]; for current density of IT: via PKC, insulin-like growth factor in dorsal root ganglion neurons, angiotensin-II in neonatal cardiomyocytes, ref [28], [60]
Description: In contrast, stimulation of PKC either by insulin-like growth factor in dorsal root ganglion neurons or by angiote ...

QEHAQEPERQYMHIGTMVEFAYALVGK [Gβγ antagonist QEHA peptide]
Nmb-induced increase in IT with QEHA ([1]; dialysis 10 μM QEHA, 100 nM Nmb, n = 6): 3.2 ± 2.5%

Nc1nc2c(ncn2[C@@H]2O[C@H](COP(=O)(O)OP(O)(O)=S)[C@@H](O)[C@H]2O)c(=O)[nH]1 [GDP-β-S]
Nmb-induced increase in IT with GDP-β-S ([1]; 1 mM intracellular GDP-β-S, 100 nM Nmb, n = 6): 2.3 ± 2.7%

C=C[C@@]1(C)CC(=O)[C@]2(O)[C@@]3(C)[C@@H](O)CCC(C)(C)[C@@H]3[C@H](O)[C@H](OC(C)=O)[C@@]2(C)O1 [forskolin]
increase of IT by forskolin ([1]; 10 μM, n = 7): 38.3 ± 2.1%

c1cc(-c2cnn3cc(-c4ccc(OCCN5CCCCC5)cc4)cnc23)ccn1 [compound C]
effect on Nmb-induced increase in PKA activity (PKA): abrogated
Nmb-induced increase of Cav3.2 currents after compound C (Cav3.2 (α1H); pretreatment 10 µM compound C, 100 nM Nmb, n = 8): 1.4 ± 2.9%
Nmb-induced increase in IT after compound C ([1]; preincubation 10 µM compound C, 100 nM Nmb, n = 7): 2.6 ± 2.8%

[Cl][Ni][Cl] [NiCl2]
effect on Nmb-induced decrease in AP threshold (small TG neurons; preincubation 50 µM NiCl2, 100 nM Nmb, n = 9): completely prevented
effect on Nmb-mediated increase in AP firing rate / hyperexcitability (small TG neurons; pretreatment KT-5720 1 µM (n = 12) or NiCl2 50 μM (n = 11), 100 nM Nmb): completely abolish
decrease of the remaining inward current (IT) ([1]; 50 μM, -110 mV Vh to -40 mV, 22-23 °C, n = 5): 79.2%
inhibition of IT at the end of recording after Nmb ([1]; 0.5 mM NiCl2 added at end of recording after 100 nM Nmb): almost abrogated the IT
inhibition of IT ([1]; n = 5): almost completely abolished
inhibition of IT ([1]; n = 5, listed as Ni^2+): completely blocked IT

COc1ccc2c(c1)CC[C@@H]1[C@@H]2CC[C@]2(C)[C@@H](NCCCCCCN3C(=O)C=CC3=O)CC[C@@H]12 [U73122]
Nmb-induced increase in IT after U73122 ([1]; pretreatment 3 μM U73122 (legend: 1 μM), 100 nM Nmb, n = 8): 31.8 ± 4.2%

NCCc1ccc(O)c(O)c1 [dopamine]
IT inhibition (T-type channels): IT inhibition

PKC 19-36: a pseudosubstrate peptide inhibitor of PKC (RFARKGALRQKNVHEVKD; UniProt P17252 19-36, looked up, fragment)
Nmb-induced increase of Cav3.2 currents with PKC 19-36 (Cav3.2 (α1H); dialysis 10 μM PKC 19-36, 100 nM Nmb, n = 9): 30.8 ± 2.3%
effect on PMA-induced increase in IT ([1]; 10 μM PKC 19-36, 5 μM PMA, n = 5): abrogated the increase in IT
Nmb-induced increase in IT with PKC 19-36 ([1]; dialysis 10 µM PKC 19-36, 100 nM Nmb, n = 7): 31.5 ± 3.5%

insulin-like growth factor
current density of IT (T-type channels): significantly increases the current density

angiotensin-II: angiotensin-II in neonatal cardiomyocytes (DRVYIHPF; Angiotensin-2; UniProt P01019 25-32, looked up)
current density of IT (T-type channels): significantly increases the current density

CNC[C@H](O)c1ccc(O)c(O)c1 [adrenaline]
IT inhibition (T-type channels): IT inhibition

corticotrophin-releasing factor: T-type channel inhibition induced by corticotrophin-releasing factor (SEEPPISLDLTFHLLREVLEMARAEQLAQQAHSNRKLMEII; ends and bridges not checked; UniProt P06850 154-194, looked up)
T-type channel inhibition (T-type channels; MN9D dopaminergic cells, prevented by PKC inhibitors, ref [59]): T-type channel inhibition

cholera toxin
Nmb-induced increase in IT after cholera toxin (Gs) [1]: 33.5 ± 2.9%

CCCCCCCCCCCCCC(=O)O[C@@H]1[C@@H](C)[C@@]2(O)[C@@H](C=C(CO)C[C@]3(O)C(=O)C(C)=C[C@@H]23)[C@@H]2C(C)(C)[C@]12OC(C)=O [PMA, phorbol 12-myristate 13-acetate]
effect of PMA on IT ([1]; 5 μM, n = 7): increase in IT

SKEEKSDKER WQHLADLADFALAMKDT [the scrambled peptide of QEHA]
Nmb-induced increase in IT with SKEE ([1]; intracellular 10 μM SKEE, 100 nM Nmb, n = 7): 33.2 ± 3.5%
